Patent US20260042764A1, “COMPOSITIONS AND METHODS FOR INHIBITION OF KRAS” (TheRas, Inc., priority 2022, published 2026)

Experiments:
[1] = system: MKN1 cells (KRAS amplification); assay: 3D Cell viability assay in MKN1 cells (Biological Example 6); assay type: cell-based; conditions: MKN (MKN1, KRAS amplification) spheroids, 72 hours
Method: (§1) Biological Example 6: 3D Cell viability assay in AsPC-1, SW1900, HPAC, Capan-2, RKN, H358, HCT116, KP-2, H1573, A549, MKN1, and HT1080 cells
(§2) The inhibition of cellular viability as a result of test compound treatment in a spheroid assay was measured using the CellTiter-Glow 3D Cell Viability Assay (Promega).
(§3) On Day 1, 1000 cells per well were seeded in 150 μL of complete growth media supplemented with 10% fetal bovine serum (FBS) and incubated at 37° C., in the presence of 5% CO2 in 96-well ultra-low attachment microplates (Corning) for 48 hours undisturbed to allow spheroids to form.
(§4) Following spheroid formation, cells were treated with compounds diluted in DMSO at 0.25% final DMSO concentration. Compounds were dosed in a 9-point concentration curve with three-fold dilution between concentrations. Cells were incubated in the presence of compound for 72 hours at 37° C., in the presence of 5% CO2.
(§5) Following this incubation period, the kit-provided CTG reagent was allowed to equilibrate for 30 minutes at room temperature, 150 μL of equilibrated CTG reagent was added to each well, and the plate was sealed before shaking at 250 rpm for 10 minutes at room temperature to lyse the cells, 150 μL of lysate per well was transferred to a 96-well plate and luminescence was read on a CLARIOstar plate reader.
(§6) Data was imported into the Prism software package (Graphpad) and EC50 values were calculated using the log (inhibitor) vs, response—variable slope (Four parameters) model.

[2] = target: T1, Avi-KRAS G12C (2-169) GTP/RAF1 RBD-3xFLAG (51-131) (Homo sapiens, UniProt P01116, G12C); assay: Raf1-KRAS G12C-GTP disruption HTRF assay (Biological Example 3); assay type: binding; conditions: KRAS G12C, GTP-loaded
T1 construct: Avi-KRAS G12C (2-169)
How it was run: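 HTRF PPI read-out (ex 320 nm, em 615 nm) after 1 h RT incubation with shaking; data as % activity vs DMSO (100%), IC50 from curve fit. Complex 50 nM, RBD reagent 75 nM; compound 30-0.005 μM, 3-fold.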

H358 cells (KRAS G12C) = assay: 3D Cell viability assay in H358 cells (Biological Example 6); assay type: cell-based; conditions: H358 (KRAS G12C) spheroids, 72 hours
Method: as §1, §2, §3, §4, §5, §6

[3] = system: Capan-2 cells (KRAS G12V); assay: Cell-based pERK HTRF assay in Capan-2 cells (Biological Example 5)
Method: (§7) Biological Example 5: Cell-based PERK HTRF assay in AsPC-1, SW1900, HPAC, Capan-2, RKN, H358, HCT116, KP-2, H1573, A549, MKN1, and HT1080 cells
(§8) The inhibition of ERK phosphorylation, as measured using the HTRF Advanced Phospho-ERK 1/2 (Thr202/Tyr204) Detection Assay kit (Perkin Elmer), was used to determine the effectiveness of test compounds in disrupting KRAS-driven protein/effector signaling in cells.
(§9) On day 1, cells were seeded into 96-well plates at 2.5×10^4 cells/well in 100 μL of complete growth media supplemented with 10% fetal bovine serum (FBS) and incubated at 37° C., in the presence of 5% CO2.
(§10) On day 2, cells were treated with compounds diluted in DMSO at 0.25% final DMSO concentration. Compounds were dosed in a 9-point concentration curve with three-fold dilution between concentrations. Cells were incubated in the presence of compound for two hours at 37° C. Following this treatment period, cells were harvested by aspirating the media, adding 40 μL of kit-supplied 1x lysis buffer per well, and shaking for 30 minutes at 250 rpm at room temperature.
(§11) Following cell lysis, samples were homogenized by pipetting up and down twenty times and 16 μL of cell lysate per well was transferred from the 96-well cell culture plate to two wells of a 384-well detection plate. A complete detection buffer was prepared by diluting D2 and Eu Cryptate antibodies 1:20 in kit-provided detection solution, 4 μL of complete detection buffer was then added to each well with lysate. Plates were incubated with gentle rocking for 24 hours at 4° C.
(§12) Following this incubation period, plates were centrifuged at 500×g for one minute and analyzed on a CLARIOstar plate reader. Data was imported into Microsoft Excel and the signal from the 665 nm channel was divided by the signal from the 620 nm channel. % pERK was calculated as: […]
(§13) Data was imported to the Prism software package (Graphpad) and EC50 values were calculated using the log (inhibitor) vs, response—variable slopc (Four parameters) model.

AsPC-1 cells (KRAS G12D) = assay: 3D Cell viability assay in AsPC-1 cells (Biological Example 6); assay type: cell-based; conditions: AsPC-1 (KRAS G12D) spheroids, 72 hours
Method: as §1, §2, §3, §4, §5, §6

[4] = system: MKN1 cells (KRAS amplification); assay: Cell-based pERK HTRF assay in MKN1 cells (Biological Example 5)
Method: as §7, §8, §9, §10, §11, §12, §13

[5] = Homo sapiens, Capan-2, Capan-2 (KRAS G12V) cells
[6] = Homo sapiens, MKN-1, MKN cells (MKN1, KRAS amplification)
[7] = MKN cells (MKN1, KRAS amplification)

T1 sequence (P01116 2-169 isoform P01116-2 G12C): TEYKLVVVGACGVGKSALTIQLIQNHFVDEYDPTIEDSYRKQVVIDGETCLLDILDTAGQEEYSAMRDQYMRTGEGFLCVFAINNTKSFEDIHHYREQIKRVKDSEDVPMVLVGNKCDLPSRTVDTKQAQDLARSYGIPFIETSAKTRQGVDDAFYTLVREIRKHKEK

| Compound | IC50 ([1]; Homo sapiens, MKN-1) [nM] | IC50 [2] [nM] | IC50 (H358 cells (KRAS G12C); Homo sapiens, NCI-H358) [nM] | IC50 [3, 5] [nM] | IC50 (AsPC-1 cells (KRAS G12D); Homo sapiens, ASPC1) [nM] | IC50 [4, 6] [nM] | IC50 [1] [nM] | IC50 (H358 cells (KRAS G12C)) [nM] | IC50 ([3]; Capan-2 (KRAS G12V) cells) [nM] | IC50 (AsPC-1 cells (KRAS G12D)) [nM] | IC50 [4, 7] [nM] |
| --- | --- | --- | --- | --- | --- | --- | --- | --- | --- | --- | --- |
| CCN(c1nc(OC[C@@]23CCCN2C[C@H](F)C3)nc2c(F)c(-c3ccc(F)c4sc(N)c(C#N)c34)c(C(F)(F)F)cc12)[C@H]1CCN(C(=O)N2CC(F)C2)C1 (atropisomer, axis not shown) [Compound 606] | ≤ 100 | ≤ 100 | ≤ 100 | ≤ 100 | ≤ 100 | ≤ 100 |  |  |  |  |  |
| C[C@H]1Cn2nc(C(=O)N(C)C)cc2CN1c1nc(OC[C@@]23CCCN2C[C@H](F)C3)nc2c(F)c(-c3ccc(F)c4sc(N)c(C#N)c34)c(C(F)(F)F)cc12 (atropisomer, axis not shown) [Compound 610] | ≤ 100 | 100 to 1000 | ≤ 100 | ≤ 100 | ≤ 100 | ≤ 100 |  |  |  |  |  |
| C/C=C/C(=O)N1CC[C@H](N(CC)c2nc(OC[C@@]34CCCN3C[C@H](F)C4)nc3c(F)c(-c4ccc(F)c5sc(N)c(C#N)c45)c(C(F)(F)F)cc23)C1 (atropisomer, axis not shown) [Compound 674] | ≤ 100 | ≤ 100 | ≤ 100 | ≤ 100 | ≤ 100 | ≤ 100 |  |  |  |  |  |
| CCN(c1nc(OC[C@@]23CCCN2C[C@H](F)C3)nc2c(F)c(-c3ccc(F)c4sc(N)c(C#N)c34)c(C(F)(F)F)cc12)[C@H]1C[C@H](COC)N(C(=O)C2CC2)C1 (atropisomer, axis not shown) [Compound 696] | ≤ 100 | 100 to 1000 | ≤ 100 | ≤ 100 | ≤ 100 | ≤ 100 |  |  |  |  |  |
| CCN(c1nc(OC[C@@]23CCCN2C[C@H](F)C3)nc2c(F)c(-c3ccc(F)c4sc(N)c(C#N)c34)c(C(F)(F)F)cc12)[C@H]1C[C@H](C)N(C(=O)OC)C1 (atropisomer, axis not shown) [Compound 704] | ≤ 100 | 100 to 1000 | ≤ 100 | ≤ 100 | ≤ 100 | ≤ 100 |  |  |  |  |  |
| CCN(c1nc(OC[C@@]23CCCN2C[C@H](F)C3)nc2c(F)c(-c3ccc(F)c4sc(N)c(C#N)c34)c(C(F)(F)F)cc12)[C@H]1C[C@H](C)N(C(=O)N2CC(OC)C2)C1 (atropisomer, axis not shown) [Compound 764] | ≤ 100 | 100 to 1000 | ≤ 100 | ≤ 100 | ≤ 100 | ≤ 100 |  |  |  |  |  |
| CCN(c1nc(OC[C@@]23CCCN2C[C@H](F)C3)nc2c(F)c(-c3ccc(F)c4sc(N)c(C#N)c34)c(C(F)(F)F)cc12)[C@H]1CC(=O)N2CCC[C@@H]12 (atropisomer, axis not shown; (aS)) [Compound 697, 2-amino-4-((S)-4-(ethyl((1S,7aS)-3-oxohexahydro-1H-pyrrolizin-1-yl)amino)-8-fluoro-2-(((2R,7aS)-2-fluorotetrahydro-1H-pyrrolizin-7a(5H)-yl)methoxy)-6-(trifluoromethyl)quinazolin-7-yl)-7-fluorobenzo[b]thiophene-3-carbonitrile] | ≤ 100 | ≤ 100 | ≤ 100 | ≤ 100 | ≤ 100 | ≤ 100 |  |  |  |  |  |
| N#Cc1cnn2c1CN(c1nc(OC[C@@]34CCCN3C[C@H](F)C4)nc3c(F)c(-c4ccc(F)c5sc(N)c(C#N)c45)c(C(F)(F)F)cc13)CC2 [Compound 392] | ≤ 100 |  | ≤ 100 | 100 to 1000 | ≤ 100 | ≤ 100 |  |  |  |  |  |
| C[C@@H]1[C@H](N(C)c2nc(OC[C@@]34CCCN3C[C@H](F)C4)nc3c(F)c(-c4ccc(F)c5sc(N)c(C#N)c45)c(C(F)(F)F)cc23)CC(=O)N1C [Compound 440] | ≤ 100 |  | 100 to 1000 | 100 to 1000 | ≤ 100 | ≤ 100 |  |  |  |  |  |
| CCC(=O)N1C[C@@H](N(CC)c2nc(OC[C@@]34CCCN3C[C@H](F)C4)nc3c(F)c(-c4ccc(F)c5sc(N)c(C#N)c45)c(C(F)(F)F)cc23)C[C@H]1C [Compound 442] | ≤ 100 |  | ≤ 100 | ≤ 100 | ≤ 100 | ≤ 100 |  |  |  |  |  |
| CCN(c1nc(OC[C@@]23CCCN2C[C@H](F)C3)nc2c(F)c(-c3ccc(F)c4sc(N)c(C#N)c34)c(C(F)(F)F)cc12)[C@H]1C[C@H](C)N(C(C)=O)C1 [Compound 463] | ≤ 100 |  | ≤ 100 | ≤ 100 | ≤ 100 | ≤ 100 |  |  |  |  |  |
| CCN(c1nc(OCC23CCCN2CC(F)C3)nc2c(F)c(-c3ccc(F)c4sc(N)c(C#N)c34)c(C(F)(F)F)cc12)C1CC(C)N(C(=O)C2CC2(F)F)C1 (stereo not shown) [Compound 732] |  | 100 to 1000 |  |  |  |  | ≤ 100 | ≤ 100 | ≤ 100 | ≤ 100 | ≤ 100 |
| CCN(c1nc(OCC23CCCN2CC(F)C3)nc2c(F)c(-c3ccc(F)c4sc(N)c(C#N)c34)c(C(F)(F)F)cc12)C1CC(C)N(C(=O)N2CC(F)C2)C1 (stereo not shown) [Compound 759] |  |  |  |  |  |  | ≤ 100 | ≤ 100 | ≤ 100 | ≤ 100 | ≤ 100 |
